Source: patent US20070037253A1, “Methods and compositions for treatment of arthritis and cancer” (priority 2003, published 2007)
Where a SMILES comes first, the peptide text is derived from it.

Assays:
Assay type in all cases: biochemical
[1] = biological target: T1, purified human synovial sPLA2 (human Type IIA sPLA2) (Homo sapiens, UniProt P14555); experiment: sPLA2 inhibition, 3H-arachidonate-labelled E. coli membrane assay; settings: for inhibition at 5 µM: read-out: % Inhibition (mean ± SD)
T1 construct: purchased Cayman Chemicals, USA
T1 sequence (P14555 21-144): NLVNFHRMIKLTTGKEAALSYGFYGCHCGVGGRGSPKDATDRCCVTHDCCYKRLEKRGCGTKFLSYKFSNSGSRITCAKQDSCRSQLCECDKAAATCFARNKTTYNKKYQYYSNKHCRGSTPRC
Experimental: In brief, [^3H] arachidonate-labeled E. coli membranes (0.005 mCi/mL; 5.8 μCi/μmol, NEN) were used as substrate, and 100 mM Tris-HCl—25 mM CaCl2, pH 7.5 solution as an assay buffer. The reaction mixture contained 20 μL of substrate, 0.85 pmole of purified human synovial sPLA2 (human Type IIA sPLA2, Cayman Chemicals, USA), and an increasing concentrations of the family of synthetic peptides derived from the sequence of PIP. The final volume of the reaction mixture was adjusted to 250 μL with an assay buffer. After incubation of the mixture (37° C., 1 h) and termination of the reaction with 750 μL of chilled PBS containing 1% BSA, microfuge tubes containing the samples were centrifuged (10,000 g at 4° C. for 15 min), and 500 μL aliquots of the supernatant taken to measure the amount of [^3H]-labeled arachidonate released from the E. coli membrane using liquid scintillation counting (Multipurpose Scintillation Counter LS 6500; Beckman, USA). As controls, sPLA2 was pre-incubated with the assay buffer alone. All samples, including controls, were performed in triplicate and plotted as the percentage inhibition relative to negative controls.
A sigmoid dose response curve was generated to allow calculation of the IC50 values. All samples were performed in triplicate. Results were analyzed by nonlinear regression with GraphPad Prism (version 2.01) and expressed as the percentage of inhibition relative to control values.

human recombinant MMP-1 = biological target: T2, human recombinant MMP-1 (Homo sapiens, UniProt P03956); experiment: MMP-1 colorimetric assay (BIOMOL AK-404 QuantiZyme)
T2 construct: human recombinant MMP-1 catalytic domain in each well (15.3 U, 20 μL); purchased BIOMOL AK-404
T2 sequence (P03956 100-269 limits assumed): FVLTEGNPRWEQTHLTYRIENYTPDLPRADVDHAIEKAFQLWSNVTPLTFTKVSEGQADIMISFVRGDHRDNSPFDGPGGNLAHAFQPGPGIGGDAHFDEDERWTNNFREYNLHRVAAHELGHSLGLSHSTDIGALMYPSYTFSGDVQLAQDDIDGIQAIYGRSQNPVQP
Experimental: FIG. 3 illustrates the results of an assay on inhibition of human recombinant MMP-1 enzyme activity by various peptide mutants. (A) MMP-1 Activity Curves: The reaction velocity (V) was determined from the slope of the OD versus time (min) plot for each test inhibitor using the linear regression analysis. (∘), Human recombinant MMP-1 purified enzyme; (□), NNGH standard positive control MMP-1 selective inhibitor; (▾), P-NT.II; (▴), D60,65E dimer; (•), PIP [57-67] dimer; (▪), PIP [59-67] dimer. (B) MMP-1 Activity Inhibition Curves: Inhibition curves of various peptide mutants against the human MMP-1 activity. Results are expressed as the mean±SD (n=3).
Inhibition of MMP-1 enzymatic activity: Enzyme inhibition by peptide analogues was assessed by using MMP-1 Colorimetric assay kit for drug discovery (BIOMOL AK-404 QuantiZyme Assay system). Briefly, human recombinant MMP-1 catalytic domain in each well (15.3 U, 20 μL) was allowed to react either with the candidate peptide (test inhibitor) dissolved in DMSO (final 0.5% DMSO in assay buffer), or with the assay buffer alone (control) for 30 min at 37° C. Immediately following incubation, the reaction was initiated by adding the thiopeptide substrate solution in assay buffer (10 μL of 100 μM Ac-PLG-[2-mercapto-4-methyl-pentanoyl]-LG-OC2H5) into each well, and the absorbance at 412 nm continuously monitored for 10 min. 1 mM Ellman's reagent [5,5′-dithiobis (2-nitrobenzoic acid] in assay buffer (50 mM HEPES, 10 mM CaCl2, 0.05% Brij-35) was used as a colour developer in this assay system. The reaction velocity (V) was determined from the slope of the OD versus time (min) plot for each test inhibitor using the linear regression analysis (Graph Pad Prism, Version 2). Inhibition (%) was then calculated using the equation, [100]−[(V inhibitor/control)×100].

collagenase I (MMP-1) = experiment: Collagenase activity assay, collagen thin film (collagen type II substrate); settings: collagen thin film, collagen type II; peptide concentration not given
Experimental: Collagenase activity was assayed by collagen thin film method using collagen type II as substrate. IC50 values were graphically determined from the inhibition curves, constructed on the basis of the in vitro results of collagenase assays. Results are the mean±SD of 3 separate experiments done in triplicates. (•), P-NT.II; (□), PIP [59-67] dimer; (Δ), PIP [59-67} monomer; (∇), LY 315920.
Collagenase activity assay: Using collagen thin film as the substrate, a quantitative method was established to measure the enzymatic activity of the MMPs (principally collagenase). Collagen type II (Sigma) solution (4 μL, 3 mg/mL in 0.012 N HCl) was added to each well of 96-well plates and precipitated by slowly increasing the pH with 4 μL of H2O and 8 μL of 0.012 N NaOH. The plate was dried at 23° C. for 24 hr, washed with H2O, and dried again at 23° C., resulting in a thin film containing 12 μg of collagen that was tightly bound to the bottom of the wells. Enzymatic reactions of the collagenase I (with and without peptide inhibitors) against the collagen films were carried out in quadruplicate at 24° C. for 16 h. The digested portion of the film was washed away, while the undigested portion was fixed for 3 h with 0.1% Coomassie brilliant blue R in 10% acetic acid and 45% methanol, and the wells washed and dried.

[2] = fixed peptide concentration (5 μM), 3H-labelled E. coli membrane assay

Compound	inhibition at 5 µM [1, 2] [%]	Collagenase (% Inhibition) (collagenase I (MMP-1)) [%]	further results
CC[C@H](C)[C@H](NC(=O)[C@H](CCC(=O)O)NC(=O)[C@@H](N)C(C)C)C(=O)N[C@@H](Cc1c[nH]cn1)C(=O)N[C@H](C(=O)N[C@@H](Cc1c[nH]c2ccccc12)C(=O)N[C@@H](CCC(=O)O)C(=O)NCC(=O)N[C@H](C(=O)N[C@H](C(=O)N[C@@H](CCC(=O)O)C(=O)N[C@H](C(=O)N[C@@H](Cc1c[nH]cn1)C(=O)N[C@H](C(=O)N[C@@H](Cc1c[nH]c2ccccc12)C(=O)N[C@@H](CCC(=O)O)C(=O)NCC(=O)N[C@H](C(=O)O)C(C)C)C(C)C)[C@@H](C)CC)C(C)C)C(C)C)C(C)C [D60,65E-PIP [59-67] dimer] (H-VEIHVWEGVVEIHVWEGV-OH; N-terminus and C-terminus assumed)	68.5 ± 3.94	–	IC50 [1]: 4.23 ± 0.67 µM; IC50 (human recombinant MMP-1): 3.74 µM
CC[C@H](C)[C@H](NC(=O)[C@H](CCC(=O)O)NC(=O)[C@@H](N)C(C)C)C(=O)N[C@@H](Cc1c[nH]cn1)C(=O)N[C@H](C(=O)N[C@@H](Cc1c[nH]c2ccccc12)C(=O)N[C@@H](CCC(=O)O)C(=O)NCC(=O)N[C@H](C(=O)O)C(C)C)C(C)C [D60,65E-PIP [59-67]] (H-VEIHVWEGV-OH; N-terminus and C-terminus assumed)	61.4 ± 4.32	5.4 ± 1.8	–
CC[C@H](C)[C@H](NC(=O)[C@H](CC(=O)O)NC(=O)[C@@H](N)C(C)C)C(=O)N[C@@H](Cc1c[nH]cn1)C(=O)N[C@H](C(=O)N[C@@H](Cc1c[nH]c2ccccc12)C(=O)N[C@@H](C)C(=O)NCC(=O)N[C@H](C(=O)O)C(C)C)C(C)C [D65A-PIP [59-67], VDIHVW (A) GV] (H-VDIHVWAGV-OH; N-terminus and C-terminus assumed)	48.5 ± 2.34	–	–
CC[C@H](C)[C@H](NC(=O)[C@H](CC(=O)O)NC(=O)[C@@H](N)C(C)C)C(=O)N[C@@H](Cc1c[nH]cn1)C(=O)N[C@H](C(=O)N[C@@H](Cc1c[nH]c2ccccc12)C(=O)N[C@@H](CCC(=O)O)C(=O)NCC(=O)N[C@H](C(=O)O)C(C)C)C(C)C [D65E-PIP [59-67], VDIHVW (E) GV] (H-VDIHVWEGV-OH; N-terminus and C-terminus assumed)	57.6 ± 3.22	–	–
CC[C@H](C)[C@H](NC(=O)[C@H](CC(=O)O)NC(=O)[C@@H](N)C(C)C)C(=O)N[C@@H](Cc1c[nH]cn1)C(=O)N[C@H](C(=O)N[C@@H](Cc1c[nH]c2ccccc12)C(=O)N[C@@H](CO)C(=O)NCC(=O)N[C@H](C(=O)O)C(C)C)C(C)C [D655-PIP [59-67], VDIHVW (S) GV] (H-VDIHVWSGV-OH; N-terminus and C-terminus assumed)	52.5 ± 1.08	–	–
CC[C@H](C)[C@H](NC(=O)[C@H](Cc1ccc(O)cc1)NC(=O)[C@@H](NC(=O)CNC(=O)[C@H](CC(=O)O)NC(=O)[C@H](Cc1c[nH]c2ccccc12)NC(=O)[C@@H](NC(=O)[C@H](Cc1cnc[nH]1)NC(=O)[C@@H](NC(=O)[C@H](CC(=O)O)NC(=O)[C@@H](NC(=O)[C@H](CCCNC(=N)N)NC(=O)CNC(=O)[C@@H](N)CC(C)C)C(C)C)[C@@H](C)CC)C(C)C)C(C)C)C(=O)N[C@@H](CCCNC(=N)N)C(=O)NCC(=O)N[C@@H](CCCNC(=N)N)C(=O)O [P-NT.II] (H-LGRVDIHVWDGVYIRGR-OH)	–	–	IC50 (human recombinant MMP-1): 1.55 µM
CC[C@H](C)[C@H](NC(=O)[C@H](CC(=O)O)NC(=O)[C@@H](NC(=O)[C@H](CCCNC(=N)N)NC(=O)CN)C(C)C)C(=O)N[C@@H](Cc1c[nH]cn1)C(=O)N[C@H](C(=O)N[C@@H](Cc1c[nH]c2ccccc12)C(=O)N[C@@H](CC(=O)O)C(=O)NCC(=O)N[C@H](C(=O)NCC(=O)N[C@@H](CCCNC(=N)N)C(=O)N[C@H](C(=O)N[C@@H](CC(=O)O)C(=O)N[C@H](C(=O)N[C@@H](Cc1c[nH]cn1)C(=O)N[C@H](C(=O)N[C@@H](Cc1c[nH]c2ccccc12)C(=O)N[C@@H](CC(=O)O)C(=O)NCC(=O)N[C@H](C(=O)O)C(C)C)C(C)C)[C@@H](C)CC)C(C)C)C(C)C)C(C)C [PIP [57-67] dimer] (H-GRVDIHVWDGVGRVDIHVWDGV-OH; N-terminus and C-terminus assumed)	76.4 ± 3.87	–	IC50 [1]: 2.43 ± 0.76 µM; IC50 (human recombinant MMP-1): 0.97 µM
CC[C@H](C)[C@H](NC(=O)[C@H](CC(=O)O)NC(=O)[C@@H](NC(=O)[C@@H](N)CCCNC(=N)N)C(C)C)C(=O)N[C@@H](Cc1c[nH]cn1)C(=O)N[C@H](C(=O)N[C@@H](Cc1c[nH]c2ccccc12)C(=O)N[C@@H](CC(=O)O)C(=O)NCC(=O)N[C@H](C(=O)O)C(C)C)C(C)C [PIP [58-67]] (H-RVDIHVWDGV-OH)	–	29.4 ± 6.0	–
CC[C@H](C)[C@H](NC(=O)[C@H](CC(=O)O)NC(=O)[C@@H](N)C(C)C)C(=O)N[C@@H](Cc1cnc[nH]1)C(=O)N[C@H](C(=O)N[C@@H](Cc1c[nH]c2ccccc12)C(=O)N[C@@H](CC(=O)O)C(=O)NCC(=O)N[C@H](C(=O)N[C@H](C(=O)N[C@@H](CC(=O)O)C(=O)N[C@H](C(=O)N[C@@H](Cc1cnc[nH]1)C(=O)N[C@H](C(=O)N[C@@H](Cc1c[nH]c2ccccc12)C(=O)N[C@@H](CC(=O)O)C(=O)NCC(=O)N[C@H](C(=O)O)C(C)C)C(C)C)[C@@H](C)CC)C(C)C)C(C)C)C(C)C [PIP [59-67] dimer] (H-VDIHVWDGVVDIHVWDGV-OH)	–	–	IC50 (human recombinant MMP-1): 0.902 µM
DIHVWDG [PIP [60-66], P-NT.II analogue]	–	4.7 ± 2.6	–
GRVDIHVWDGV [PIP [57-67], P-NT.II analogue]	–	65.1 ± 3.3	–
GRVDIHVWDGVYIRGR [PIP [57-72], P-NT.II analogue]	–	39.8 ± 3.5	–
LGRVDIHVWDGVY [PIP [56-68], P-NT.II analogue]	–	61.6 ± 7.6	–
LGRVDIHVWDGVYI [PIP [56-69], P-NT.II analogue]	–	59.8 ± 6.2	–
LGRVDIHVWDGVYIR [PIP [56-70], P-NT.II analogue]	–	60.6 ± 4.5	–
LGRVDIHVWDGVYIRG [PIP [56-71], P-NT.II analogue]	–	62.8 ± 6.6	–
RVDIHVWDGVYIRGR [PIP [58-72], P-NT.II analogue]	–	23.3 ± 2.9	–
VDIHVW (βD) GV [β-Asp65-PIP [59-67]]	–	–	% Inhibition (mean ± SD) [1, 2]: 49.71 ± 3.01%
VDIHVWDGVYIRGR [PIP [59-72], P-NT.II analogue]	–	14.5 ± 2.4	–
